Values quoted from earlier work in patent US20060211763A1, “Treatment with Statin and Omega-3 Fatty Acids and a Combination Product Thereof” (priority 2005, published 2006).
Each block holds one molecule with its values, some of them ahead of it.

Columns and labels:
[1] = test system: patients with hyperlipidemia; conditions: 900 or 1800 mg/day EPA ethyl ester for 3 months added to 5-20 mg/day pravastatin or 5 mg/day simvastatin; vs baseline monotherapy
[2] = test system: patients with hyperlipemia; conditions: 10 mg/day atorvastatin 5 weeks (vs baseline)
[3] = in vivo
[4] = test system: patients with hypercholesterolemia; conditions: 40 mg/day lovastatin 6 weeks
[5] = then plus 2 g/day Omacor 5 weeks (vs atorvastatin alone; insignificant)
[6] = then combination with 6 g/day Omacor 6 weeks

Compound: CC/C=C\C/C=C\C/C=C\C/C=C\C/C=C\CCCC(=O)OCC [EPA ethyl ester]
HDL-C levels [1]: significantly increased | Triglyceride levels [1]: significantly reduced

Compound: CC(C)c1c(C(=O)Nc2ccccc2)c(-c2ccccc2)c(-c2ccc(F)cc2)n1CC[C@@H](O)C[C@@H](O)CC(=O)O [atorvastatin]
HDL-C levels ([2]; then plus 2 g/day Omacor 5 weeks (vs atorvastatin alone)): significantly increased | LDL-C levels [2, 5]: significantly decreased | Triglyceride levels [2, 5]: significantly decreased

Compound: CC(C)n1c(/C=C/C(O)CC(O)CC(=O)O)c(-c2ccc(F)cc2)c2ccccc21 (stereo not drawn) [fluvastatin]
Bioavailability [3]: approximately 24%

Now from value to molecule, other results behind:

Degradation in alkaline environment: converted to the acid form | Rate of absorption [3]: about 30%
Compound: CC[C@H](C)C(=O)O[C@H]1C[C@@H](C)C=C2C=C[C@H](C)[C@H](CC[C@@H]3C[C@@H](O)CC(=O)O3)[C@H]21 [lovastatin]
HDL-C levels [4]: significant increases | LDL-C levels [4, 6]: significant decreases | Triglyceride levels [4, 6]: significant decreases

Effect of food on absorption [3]: best absorbed without food
Compound: CC[C@H](C)C(=O)O[C@H]1C[C@H](O)C=C2C=C[C@H](C)[C@H](CC[C@@H](O)C[C@@H](O)CC(=O)O)[C@H]21 [pravastatin]
